Reference: PMC5126668 (PeerJ, 2016)
Where “and” joins values, the source holds several entries; their conditions need not be identical. Equal entries are not always repeated. Where two headings read alike, the source gives them in different places.

Tests used:
[1] = system: HK-2 cells; test: HK-2 cell viability, MTT assay, with or without co-cultured HLMs; format: cell-based, human
Experimental: HK-2 cells obtained from Peking Union Medical College were maintained in D/F12 medium containing 10% fetal bovine serum, 2 mM glutamine and 1 × 10^5 U/L penicillin and streptomycin at 37 °C in a 5% CO2 atmosphere. […] The samples containing HLMs were prepared in an ice bath, and three replicates were tested for each dose. In brief, HK-2 cells (100 µL) were seeded at 3 × 10^5cells/mL in 96-well plates. After 12 h, 200 µL of the test compound was added. For the BAK and GA with HLMs group, GA was pre-incubated with NADPH in HLMs for 30 min at 37 °C and then mixed with BAK; for the other groups, all tested compounds except NADPH were mixed, and NADPH was then added to start the metabolic reaction. After 4 h of culture, 100 µL of 0.5 g/L MTT was added, and the cells were cultured for 4 h. Subsequently, 150 µL of 4% isopropanol was added to cells for 15 min at 37 °C, and the absorbance at 570 nm was then read by a microplate reader (Multiskan MK3, Thermo, USA). The relative cell viability (%) was calculated as follows: Mean Absorbance of Sample/Mean Absorbance of Vehicle Control × 100%.

[2] = system: BAK metabolism in HLMs; test: Metabolic elimination of BAK in HLMs and its inhibition by GA (HPLC); format: in vitro ADME, human; settings: for Remaining percentage of BAK (%): HLMs 0.5 g/L; for Remaining percentage of BAK (%) / Remaining percentage of GA (%) / Inhibition of BAK by GA (%): mean; for remaining of BAK (%), single samples / Inhibition of BAK by GA, single samples / remaining of GA (%), single samples: t=30 min
Experimental: The HLM mixtures were prepared on ice. […] At the end of the incubation (0 or 30 min), 200 µL of methanol-acetonitrile (1:1, V:V) solution containing tanshinone II A (internal standard) was added to terminate the reaction. The mixtures were then vortexed for 2 min followed by centrifugation at 14,500 rpm for 10 min. A 10 µL aliquot of the supernatant was then injected for HPLC analysis. […] RContr is the percentage of BAK remaining in the BAK group.

[3] = BAK exposure in rat liver and kidney 24 h after dosing; format: in vivo, Sprague–Dawley rats; settings: for concentration at 24 h: Sprague-Dawley, po, 200 mg/kg
Experimental: The liver and kidney tissue were also collected from individual rats 24 h after dosing, weighed and then homogenized in saline solution (0.6 g wet weight/mL) on ice. Subsequently, 10 µL of internal standard solution (tanshinone II A, 10 µg/mL) and 0.3 mL of acetonitrile were added to 0.1 mL of plasma or homogenates, and centrifuged at 13,300 rpm for 15 min after 2 min of vortexing. The supernatant was reconstituted in 100 µL of mobile phase after drying under 40 °C nitrogen, the mixture then was vortexed for 5 min and centrifuged at 13,300 rpm for 15 min. Finally, 20 µL of supernatant was injected for HPLC analysis. […] The mobile phase consisted of methanol and water with 0.1% formic acid (89:11, v/v) and was supplied at a flow rate of 0.8 mL/min. The detection wavelength was set to 262 nm. […] The recovery was >93%.

[4] = target: T1, CYP2D6 (Homo sapiens, UniProt P10635); test: Inhibition of CYP activities by GA in HLMs (dextromethorphan); format: biochemical
T1 construct: was investigated in HLMs; tissue iPhase Pharmaceutical Services (Beijing, China) Lot # 7MMC011; host or cells: pooled human liver microsomes
T1 sequence (P10635 whole entry): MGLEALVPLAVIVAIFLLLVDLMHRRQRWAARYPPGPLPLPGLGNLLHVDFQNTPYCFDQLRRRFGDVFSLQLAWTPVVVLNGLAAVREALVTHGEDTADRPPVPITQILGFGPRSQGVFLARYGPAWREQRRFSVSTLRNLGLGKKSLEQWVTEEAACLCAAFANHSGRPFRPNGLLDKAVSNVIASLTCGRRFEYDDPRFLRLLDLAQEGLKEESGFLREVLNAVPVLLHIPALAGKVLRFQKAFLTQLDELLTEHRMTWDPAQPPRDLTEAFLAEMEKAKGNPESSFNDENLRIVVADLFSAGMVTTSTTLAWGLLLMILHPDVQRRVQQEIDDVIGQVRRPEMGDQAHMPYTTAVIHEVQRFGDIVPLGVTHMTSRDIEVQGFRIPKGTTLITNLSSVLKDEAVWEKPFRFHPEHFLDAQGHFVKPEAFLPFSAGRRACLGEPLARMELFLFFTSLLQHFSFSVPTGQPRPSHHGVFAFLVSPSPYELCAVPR
Experimental: (§1) The samples containing HLMs were prepared in an ice bath, and three replicates of each dose were tested.
(§2) The reaction system consisted of 0.5 g/L HLMs, 1 mM NADPH, 25 µM phenacetin (CYP1A2 substrate), 25 µM tolbutamide (CYP2C9 substrate), 25 µM mephenytoin (CYP2C19 substrate), 10 µM dextromethorphan (CYP2D6 substrate) and 10 µM midazolam (CYP3A4 substrate). After incubation at 37 °C for 30 min, 200 µL of methanol containing 100 µg/L propranolol hydrochloride was added to terminate the reaction. The samples were then treated, and the corresponding substrate metabolites of CYP isoforms were detected according to a previously described method ([Shen et al., 2013]).

[5] = target: T2, CYP3A4 (Homo sapiens, UniProt P08684); test: Inhibition of CYP activities by GA in HLMs (midazolam); format: biochemical
T2 construct: was investigated in HLMs; tissue iPhase Pharmaceutical Services (Beijing, China) Lot # 7MMC011; host or cells: pooled human liver microsomes
T2 sequence (P08684 whole entry): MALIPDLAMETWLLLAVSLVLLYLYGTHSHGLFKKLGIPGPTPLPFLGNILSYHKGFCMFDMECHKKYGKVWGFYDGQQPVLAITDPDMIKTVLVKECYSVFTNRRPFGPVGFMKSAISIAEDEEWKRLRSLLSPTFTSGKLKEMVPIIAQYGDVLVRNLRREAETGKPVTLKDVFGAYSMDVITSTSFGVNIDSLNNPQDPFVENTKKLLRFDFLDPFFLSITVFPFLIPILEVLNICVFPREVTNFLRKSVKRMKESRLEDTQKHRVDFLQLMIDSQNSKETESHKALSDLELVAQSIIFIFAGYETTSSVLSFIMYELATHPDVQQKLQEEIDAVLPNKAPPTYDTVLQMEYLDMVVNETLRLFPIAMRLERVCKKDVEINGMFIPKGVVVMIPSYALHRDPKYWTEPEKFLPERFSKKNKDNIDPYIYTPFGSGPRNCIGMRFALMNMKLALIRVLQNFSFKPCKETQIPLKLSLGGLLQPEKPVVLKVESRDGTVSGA
Experimental: as §1, §2

Structure (SMILES): C=C[C@@](C)(/C=C/c1ccc(O)cc1)CCC=C(C)C [BAK, Bakuchiol]
- decreases in viability of HK-2 cells ([1]; BAK combined with GA): 25∼40%
- 30min BAK metabolic percentage (%) ([2]; BAK 10 µM alone, HLMs, 30 min): 36.51%
- Remaining percentage of BAK (%) ([2]; BAK 10 µM, GA 0 µM, 30 min): 63.49 ± 6.05% and 63.49%
- Remaining percentage of BAK (%) ([2]; BAK 10 µM, GA 12.5 µM, 30 min): 71.60 ± 6.40% and 71.60%
- remaining of BAK (%), single samples ([2]; BAK 10 µM, GA 12.5 µM): 64.61% and 73.02% and 77.17%
- Remaining percentage of BAK (%) ([2]; BAK 10 µM, GA 62.5 µM, 30 min): 80.10 ± 6.81 % and 80.10%
- remaining of BAK (%), single samples ([2]; BAK 10 µM, GA 62.5 µM): 85.51% and 72.46% and 82.34%
- remaining of BAK (%), single samples ([2]; BAK 10 µM, GA 93.75 µM): 73.93% and 93.16% and 104.23%
- Remaining percentage of BAK (%) ([2]; BAK 10 µM, GA 125.0 µM, 30 min): 97.24 ± 1.46 % and 97.24%
- remaining of BAK (%), single samples ([2]; BAK 10 µM, GA 125 µM): 98.81% and 95.94% and 96.96%
- remaining of BAK (%), single samples ([2]; BAK 10 µM, no GA, HLM 0.5 mg/ml): 56.87% and 64.87% and 68.72%
- BAK in kidney relative to liver ([3]; 24 h after administration): 1.37- to 1.54 fold
- Exposure of BAK, Kidney, single rats ([3]; 24 h after single oral dose): 0.7466 µg/g and 0.7844 µg/g and 0.7813 µg/g and 0.8035 µg/g
- Exposure of BAK, Liver, single rats ([3]; 24 h after single oral dose): 0.5617 µg/g and 0.5502 µg/g and 0.5630 µg/g and 0.5314 µg/g
- concentration at 24 h ([3]; kidney, 24 h after single oral dose, read-out: Exposure of BAK, Kidney, mean): 755 ng/g
- concentration at 24 h ([3]; kidney, 24 h after single oral dose, read-out: Exposure of BAK, Kidney, single rats): 661 ng/g
- concentration at 24 h ([3]; liver, 24 h after single oral dose, read-out: Exposure of BAK, Liver, mean): 548 ng/g
- concentration at 24 h ([3]; liver, 24 h after single oral dose, read-out: Exposure of BAK, Liver, single rats): 531 ng/g

Structure (SMILES): CC1(C)[C@@H](O)CC[C@]2(C)[C@H]3C(=O)C=C4[C@@H]5C[C@@](C)(C(=O)O)CC[C@]5(C)CC[C@@]4(C)[C@]3(C)CC[C@@H]12 [GA, Glycyrrhetinic acid]
- effect on HK-2 cell survival ([1]; GA 100 µM alone): did not affect
- Remaining percentage of GA (%) ([2]; GA 12.5 µM with BAK 10 µM, HLMs, 30 min): 99.37 ± 9.39% and 99.37%
- Inhibition of BAK by GA (%) ([2]; GA 12.5 µM, BAK 10 µM, HLMs, 30 min): 23% and 22.72 ± 4.55% and 22.72%
- Inhibition of BAK by GA, single samples ([2]; GA 12.5 µM, BAK 10 µM): 17.95% and 23.22% and 27.00%
- remaining of GA (%), single samples ([2]; GA 12.5 µM, BAK 10 µM): 94.84% and 93.11% and 110.17%
- Remaining percentage of GA (%) ([2]; GA 62.5 µM with BAK 10 µM, HLMs, 30 min): 100.7 ± 12.33% and 100.77%
- Inhibition of BAK by GA (%) ([2]; GA 62.5 µM, BAK 10 µM, HLMs, 30 min): 44% and 43.85 ± 22.41% and 43.85%
- remaining of GA (%), single samples ([2]; GA 62.5 µM, BAK 10 µM): 112.61% and 101.67% and 88.01%
- remaining of GA (%), single samples ([2]; GA 93.75 µM, BAK 10 µM): 94.57% and 101.22%
- Remaining percentage of GA (%) ([2]; GA 125.0 µM with BAK 10 µM, HLMs, 30 min): 107.8 ± 7.54% and 107.76%
- Inhibition of BAK by GA (%) ([2]; GA 125.0 µM, BAK 10 µM, HLMs, 30 min): 92% and 92.00 ± 4.64%
- Inhibition of BAK by GA, single samples ([2]; GA 125 µM, BAK 10 µM): 97.25% and 88.45% and 90.28%
- remaining of GA (%), single samples ([2]; GA 125 µM, BAK 10 µM): 101.56% and 105.56% and 116.14%
- GA concentrations at which significant inhibition of BAK metabolic clearance was observed ([2]; HLMs, BAK 10 µM): above 12.5 µM
- IC50 ([4]; HLMs, 30 min pre-incubation with NADPH, dextromethorphan 10 µM): 263 ± 1.05 µM
- activity at 30 min, 0.1 µM ([4]; human, human liver microsomes, probe dextromethorphan (10 µM), CYP2D6-30min, GA 0.10, vs control, read-out: Relative activity (%)): 96.4%
- activity at 30 min, 1 µM ([4]; human, human liver microsomes, probe dextromethorphan (10 µM), CYP2D6-30min, GA 1.00, vs control, read-out: Relative activity (%)): 92.4%
- activity at 30 min, 6.25 µM ([4]; human, human liver microsomes, probe dextromethorphan (10 µM), CYP2D6-30min, GA 6.25, vs control, read-out: Relative activity (%)): 96%
- activity at 30 min, 31.25 µM ([4]; human, human liver microsomes, probe dextromethorphan (10 µM), CYP2D6-30min, GA 31.25, vs control, read-out: Relative activity (%)): 91.1%
- activity at 30 min, 100 µM ([4]; human, human liver microsomes, probe dextromethorphan (10 µM), CYP2D6-30min, GA 100.00, vs control, read-out: Relative activity (%)): 85.1%
- activity at 30 min, 156.25 µM ([4]; human, human liver microsomes, probe dextromethorphan (10 µM), CYP2D6-30min, GA 156.25, vs control, read-out: Relative activity (%)): 81.7%
- activity at 30 min, 312.5 µM ([4]; human, human liver microsomes, probe dextromethorphan (10 µM), CYP2D6-30min, GA 312.50, vs control, read-out: Relative activity (%)): 42%
- activity at 30 min, 1000 µM ([4]; human, human liver microsomes, probe dextromethorphan (10 µM), CYP2D6-30min, GA 1000.00, vs control, read-out: Relative activity (%)): 29.3%
- activity at 30 min, […] ([4]; human, human liver microsomes, probe dextromethorphan (10 µM), read-out: Relative activity (%)): 69.7%
- IC50 ([5]; HLMs, 30 min pre-incubation with NADPH, midazolam 10 µM, µM): 1.53 ± 2.25 µM
- activity at 30 min, 0.1 µM ([5]; human, human liver microsomes, probe midazolam (10 µM), CYP3A4-30min, GA 0.10, vs control, read-out: Relative activity (%)): 95.9%
- activity at 30 min, 1 µM ([5]; human, human liver microsomes, probe midazolam (10 µM), CYP3A4-30min, GA 1.00, vs control, read-out: Relative activity (%)): 64.6%
- activity at 30 min, 6.25 µM ([5]; human, human liver microsomes, probe midazolam (10 µM), CYP3A4-30min, GA 6.25, vs control, read-out: Relative activity (%)): 39.1%
- activity at 30 min, 31.25 µM ([5]; human, human liver microsomes, probe midazolam (10 µM), CYP3A4-30min, GA 31.25, vs control, read-out: Relative activity (%)): 13.5%
- activity at 30 min, 100 µM ([5]; human, human liver microsomes, probe midazolam (10 µM), CYP3A4-30min, GA 100.00, vs control, read-out: Relative activity (%)): 15.2%
- activity at 30 min, 156.25 µM ([5]; human, human liver microsomes, probe midazolam (10 µM), CYP3A4-30min, GA 156.25, vs control, read-out: Relative activity (%)): 13.1%
- activity at 30 min, 312.5 µM ([5]; human, human liver microsomes, probe midazolam (10 µM), CYP3A4-30min, GA 312.50, vs control, read-out: Relative activity (%)): 0.261%
- activity at 30 min, 1000 µM ([5]; human, human liver microsomes, probe midazolam (10 µM), CYP3A4-30min, GA 1000.00, vs control, read-out: Relative activity (%)): 0.298%
- activity at 30 min, […] ([5]; human, human liver microsomes, probe midazolam (10 µM), read-out: Relative activity (%)): 3.63%
